{"source": "ChEMBL document CHEMBL4680246", "about": "“Design, synthesis and biological evaluation of novel O-carbamoyl ferulamide derivatives as multi-target-directed ligands for the treatment of Alzheimer's disease” (Eur J Med Chem, 2020)", "key": {"[1]": {"assay": "Effect on tau protein level in mouse HT22 cells transfected with pRK5-GFP-Tau plasmid assessed as fluorescence intensity at 20 uM by fluorescence microscopy (Rvb <= 40.9)", "format": "functional, HT-22"}, "[2]": {"assay": "Effect on tau protein level in mouse HT22 cells transfected with pRK5-GFP-Tau plasmid assessed as fluorescence intensity at 10 uM by fluorescence microscopy (Rvb <= 40.9)", "format": "functional, HT-22"}, "[3]": {"assay": "Cytotoxicity against mouse HT22 cells assessed as cell viability at 80 uM by MTT assay relative to control", "format": "cell-based, HT-22", "settings": "read-out: Activity"}, "[4]": {"target": "Amyloid-beta precursor protein (Homo sapiens) (UniProt P05067)", "sequence (P05067 whole entry, the tested form may be a part)": "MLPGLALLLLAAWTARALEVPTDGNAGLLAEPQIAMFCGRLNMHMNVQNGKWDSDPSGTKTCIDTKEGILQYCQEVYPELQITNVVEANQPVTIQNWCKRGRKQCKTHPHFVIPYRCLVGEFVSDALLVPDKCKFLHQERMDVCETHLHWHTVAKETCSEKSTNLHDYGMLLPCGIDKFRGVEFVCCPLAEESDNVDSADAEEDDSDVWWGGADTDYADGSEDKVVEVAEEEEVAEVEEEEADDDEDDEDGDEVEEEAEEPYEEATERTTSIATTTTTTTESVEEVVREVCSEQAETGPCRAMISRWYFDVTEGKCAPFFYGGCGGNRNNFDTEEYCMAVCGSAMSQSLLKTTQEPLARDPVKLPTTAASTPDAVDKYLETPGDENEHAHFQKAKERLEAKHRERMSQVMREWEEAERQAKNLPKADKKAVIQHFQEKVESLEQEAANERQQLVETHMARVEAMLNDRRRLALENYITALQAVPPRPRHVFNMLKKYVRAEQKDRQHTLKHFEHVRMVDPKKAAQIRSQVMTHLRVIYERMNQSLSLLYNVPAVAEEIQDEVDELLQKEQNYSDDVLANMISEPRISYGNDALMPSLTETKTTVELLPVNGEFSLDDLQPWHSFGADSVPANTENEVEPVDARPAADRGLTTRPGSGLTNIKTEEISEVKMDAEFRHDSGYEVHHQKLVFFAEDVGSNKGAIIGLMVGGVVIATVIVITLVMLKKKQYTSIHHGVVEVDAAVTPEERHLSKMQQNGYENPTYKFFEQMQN", "assay": "Disaggregation of self-induced amyloid beta (1 to 42) (unknown origin) preformed fibrils at 25 uM measured after 24 hrs by thioflavin-T fluorescence assay relative to control"}, "[5]": {"target": "Amyloid-beta precursor protein (Homo sapiens) (UniProt P05067)", "assay": "Inhibition of self-induced Amyloid beta (1 to 42 residues) (unknown origin) aggregation at 25 uM measured after 24 hrs by thioflavin T-based fluorimetric assay relative to control"}, "[6]": {"target": "T1, Amine oxidase [flavin-containing] B (Homo sapiens, UniProt P27338)", "T1 sequence (P27338 whole entry)": "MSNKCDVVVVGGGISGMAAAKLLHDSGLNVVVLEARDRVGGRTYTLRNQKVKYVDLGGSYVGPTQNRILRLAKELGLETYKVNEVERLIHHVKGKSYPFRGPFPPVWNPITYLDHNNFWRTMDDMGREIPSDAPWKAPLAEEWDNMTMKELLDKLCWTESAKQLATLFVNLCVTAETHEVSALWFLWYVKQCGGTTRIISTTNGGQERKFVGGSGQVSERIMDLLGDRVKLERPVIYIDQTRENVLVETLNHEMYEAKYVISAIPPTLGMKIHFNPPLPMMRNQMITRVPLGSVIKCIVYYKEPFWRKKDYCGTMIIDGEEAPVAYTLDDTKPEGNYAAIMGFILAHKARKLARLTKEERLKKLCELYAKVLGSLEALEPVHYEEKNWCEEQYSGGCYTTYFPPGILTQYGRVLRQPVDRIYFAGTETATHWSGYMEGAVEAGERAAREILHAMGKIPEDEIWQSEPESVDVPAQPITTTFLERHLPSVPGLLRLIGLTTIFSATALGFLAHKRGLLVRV", "assay": "Inhibition of recombinant human MAO-B"}, "Cholinesterase [7]": {"target": "T2, Cholinesterase (Homo sapiens, UniProt P06276)", "T2 sequence (P06276 whole entry)": "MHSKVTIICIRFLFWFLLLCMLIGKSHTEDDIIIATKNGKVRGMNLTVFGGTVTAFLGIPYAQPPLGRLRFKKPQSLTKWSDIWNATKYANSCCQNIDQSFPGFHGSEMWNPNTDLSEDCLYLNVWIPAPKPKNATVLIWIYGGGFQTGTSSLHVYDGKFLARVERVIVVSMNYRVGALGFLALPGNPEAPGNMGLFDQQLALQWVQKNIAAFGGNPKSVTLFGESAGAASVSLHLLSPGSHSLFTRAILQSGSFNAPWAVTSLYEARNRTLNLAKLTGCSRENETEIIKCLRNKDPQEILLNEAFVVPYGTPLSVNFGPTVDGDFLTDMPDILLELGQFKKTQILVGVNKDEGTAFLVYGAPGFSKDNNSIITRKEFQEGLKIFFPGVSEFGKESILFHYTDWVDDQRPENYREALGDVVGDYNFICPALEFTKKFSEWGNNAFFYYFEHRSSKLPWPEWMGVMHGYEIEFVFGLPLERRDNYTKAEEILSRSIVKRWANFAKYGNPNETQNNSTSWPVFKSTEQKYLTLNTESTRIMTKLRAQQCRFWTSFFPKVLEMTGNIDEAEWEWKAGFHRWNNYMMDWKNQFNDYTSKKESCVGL", "assay": "Inhibition of human serum BuChE assessed as residual activity at IC50 using acetylcholine iodide as substrate measured after dilution by Ellman's method relative to control"}, "Homo sapiens": {"species": "Homo sapiens", "assay": "Selectivity index, ratio of IC50 for human erythrocytes Ache to IC50 for human serum BuChe"}, "Cholinesterase [8]": {"target": "T2, Cholinesterase", "assay": "Inhibition of human serum BuChE using acetylcholine iodide as substrate incubated for 15 mins by Ellman's method"}, "Cholinesterase [9]": {"target": "Cholinesterase (Equus caballus, UniProt P81908)", "sequence (P81908 whole entry)": "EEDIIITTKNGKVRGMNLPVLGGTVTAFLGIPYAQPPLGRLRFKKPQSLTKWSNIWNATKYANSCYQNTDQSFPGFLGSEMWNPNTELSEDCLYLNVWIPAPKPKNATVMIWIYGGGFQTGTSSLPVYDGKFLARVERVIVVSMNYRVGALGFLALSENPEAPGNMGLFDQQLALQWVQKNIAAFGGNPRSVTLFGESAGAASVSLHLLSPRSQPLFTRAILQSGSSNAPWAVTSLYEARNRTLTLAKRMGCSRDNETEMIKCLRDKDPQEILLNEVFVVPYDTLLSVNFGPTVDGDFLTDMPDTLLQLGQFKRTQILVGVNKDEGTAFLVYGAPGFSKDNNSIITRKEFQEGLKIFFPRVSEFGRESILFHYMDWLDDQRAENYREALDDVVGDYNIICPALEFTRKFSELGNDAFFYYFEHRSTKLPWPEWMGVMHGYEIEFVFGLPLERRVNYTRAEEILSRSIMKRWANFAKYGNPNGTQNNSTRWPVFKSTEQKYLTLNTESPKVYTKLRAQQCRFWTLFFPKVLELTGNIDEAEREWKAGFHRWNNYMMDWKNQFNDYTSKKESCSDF", "assay": "Inhibition of equine serum BuChE using BTC as substrate after 15 mins by Ellman's method"}, "Acetylcholinesterase": {"target": "Acetylcholinesterase (Electrophorus electricus, UniProt O42275)", "sequence (O42275 whole entry)": "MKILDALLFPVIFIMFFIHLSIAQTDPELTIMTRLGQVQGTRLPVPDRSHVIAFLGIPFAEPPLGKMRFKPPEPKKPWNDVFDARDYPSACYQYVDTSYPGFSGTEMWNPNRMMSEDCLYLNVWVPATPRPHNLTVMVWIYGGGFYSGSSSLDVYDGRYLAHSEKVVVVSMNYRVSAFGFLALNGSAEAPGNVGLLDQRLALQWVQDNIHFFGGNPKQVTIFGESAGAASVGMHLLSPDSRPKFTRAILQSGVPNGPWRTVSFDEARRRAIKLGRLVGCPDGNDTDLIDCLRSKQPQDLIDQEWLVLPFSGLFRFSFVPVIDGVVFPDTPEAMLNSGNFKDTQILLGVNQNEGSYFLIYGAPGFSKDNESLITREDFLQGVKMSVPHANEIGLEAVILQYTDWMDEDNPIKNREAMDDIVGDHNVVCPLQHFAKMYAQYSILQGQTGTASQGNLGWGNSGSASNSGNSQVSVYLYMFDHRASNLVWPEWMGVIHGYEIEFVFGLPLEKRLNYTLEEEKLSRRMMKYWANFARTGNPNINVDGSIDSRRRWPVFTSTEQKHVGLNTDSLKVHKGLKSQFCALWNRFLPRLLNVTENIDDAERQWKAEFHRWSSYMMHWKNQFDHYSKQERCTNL", "assay": "Inhibition of Electrophorus electricus AChE using acetylcholine iodide as substrate incubated for 15 mins by Ellman's method"}, "[10]": {"assay": "Acute toxicity in Kunming mouse assessed as damage in kidney at 50 to 1000 mg/kg measured after 7 days", "format": "organism-based", "settings": "in vivo, 168 h, dose 50-1000 mg/kg, time 7 day"}, "[11]": {"assay": "Acute toxicity in Kunming mouse assessed as damage in heart at 50 to 1000 mg/kg measured after 7 days", "format": "organism-based", "settings": "in vivo, 168 h, dose 50-1000 mg/kg, time 7 day"}, "[12]": {"assay": "Acute toxicity in Kunming mouse assessed as damage in liver at 50 to 1000 mg/kg measured after 7 days", "format": "organism-based", "settings": "in vivo, 168 h, dose 50-1000 mg/kg, time 7 day"}, "[13]": {"assay": "Effect on tau protein level in mouse HT22 cells transfected with pRK5-GFP-Tau P301L plasmid assessed as fluorescence intensity at 2.5 uM by fluorescence microscopy (reference value: 33.6)", "format": "functional, HT-22"}, "[14]": {"assay": "Effect on tau protein level in mouse HT22 cells transfected with pRK5-GFP-Tau P301L plasmid assessed as fluorescence intensity at 10 uM by fluorescence microscopy (reference value: 33.6)", "format": "functional, HT-22"}, "[15]": {"assay": "Effect on APP protein level in mouse HT22 cells transfected with pEGFP-N1-APP plasmid assessed as fluorescence intensity at 5 uM by fluorescence microscopy (reference value: 33.2)", "format": "functional, HT-22"}, "[16]": {"assay": "Toxicity in Zebrafish assessed as mortality at 3.125 ug/ml relative to control", "design": "species or system Danio rerio", "settings": "in vivo, at 3.125 µg/mL"}, "[17]": {"assay": "Toxicity in Zebrafish assessed as mortality at 25 ug/ml relative to control", "design": "species or system Danio rerio", "settings": "in vivo, at 25 µg/mL"}, "[18]": {"assay": "Toxicity in Zebrafish assessed as mortality at 100 ug/ml relative to control", "design": "species or system Danio rerio", "settings": "in vivo, at 100 µg/mL"}, "[19]": {"assay": "Toxicity in Zebrafish assessed as absence of blood flow at 6.25 ug/ml relative to control", "design": "species or system Danio rerio", "settings": "at 6.25 µg/mL"}, "[20]": {"assay": "Toxicity in Zebrafish assessed as small or misshapen jaw at 6.25 ug/ml relative to control", "design": "species or system Danio rerio", "settings": "in vivo, at 6.25 µg/mL"}, "[21]": {"assay": "Toxicity in Zebrafish assessed as degenerating muscle within the somites at 6.25 ug/ml relative to control", "design": "species or system Danio rerio", "settings": "in vivo, at 6.25 µg/mL"}, "[22]": {"assay": "Toxicity in AlCl3-induced Zebrafish model of Alzheimer's disease assessed as mortality at 1 ug/ml relative to control", "design": "species or system Danio rerio", "settings": "in vivo, at 1 µg/mL"}, "Danio rerio [23]": {"species": "Danio rerio", "assay": "Antialzheimer activity in AlCl3-induced Zebrafish model of Alzheimer's disease assessed as increase in motility distance at […] relative to control", "format": "functional", "settings": "dose 0.11 µg/ml"}, "Danio rerio [24]": {"species": "Danio rerio", "assay": "Antialzheimer activity in AlCl3-induced Zebrafish model of Alzheimer's disease assessed as increase in motility distance at 1 ug/ml relative to control", "format": "functional", "settings": "dose 1 µg/ml"}, "Danio rerio [25]": {"species": "Danio rerio", "assay": "Antialzheimer activity in AlCl3-induced Zebrafish model of Alzheimer's disease assessed as change in motility speed at 1 ug/ml (reference value: 1.08 mm/s)", "format": "functional", "settings": "dose 1 µg/ml"}, "Danio rerio [26]": {"species": "Danio rerio", "assay": "Protection against amyloid beta (1 to 42)-induced zebrafish model of vascular injury assessed as vascular injury rate at 0.33 ug/ml (reference value: 73.3%)", "format": "functional", "settings": "dose 0.33 µg/ml"}, "[27]": {"assay": "Acute toxicity in Kunming mouse assessed as mortality at 50 to 1000 mg/kg", "format": "organism-based", "settings": "in vivo, dose 50-1000 mg/kg"}, "[28]": {"assay": "Acute toxicity in Kunming mouse assessed as decrease in autonomic activity at 250 to 1000 mg/kg", "format": "organism-based", "settings": "in vivo, dose 250-1000 mg/kg"}, "Mus musculus [29]": {"system": "Mus musculus", "assay": "Improvement in brain cholinergic activity in scopolamine-induced mouse model of amnesia assessed as change in AChE vitality at 20 mg/kg (reference value: 0.105 U/mg)", "format": "functional"}, "Mus musculus [30]": {"system": "Mus musculus", "assay": "Improvement in brain cholinergic activity in scopolamine-induced mouse model of amnesia assessed as change in AChE vitality at 6 mg/kg (reference value: 0.105 U/mg)", "format": "functional"}, "[31]": {"assay": "Drug metabolism in rat liver microsomes by HPLC analysis", "format": "ADME, Microsome"}}, "data": [{"compound": "CCN(C)C(=O)Oc1ccc(/C=C/C(=O)N2CCc3ccccc3C2)cc1OC", "values": [{"measurement": "Flu intensity", "setting": "[1]", "result": 29.2}, {"measurement": "Flu intensity", "setting": "[2]", "result": 33.3}, {"measurement": "viability at 80 µM", "setting": "[3]", "result": 8.4, "unit": "%"}, {"measurement": "Activity", "setting": "[4]", "result": 43.3, "unit": "%"}, {"measurement": "inhibition", "setting": "[5]", "result": 58.2, "unit": "%"}, {"measurement": "IC50", "setting": "[6]", "result": 5.3, "unit": "µM"}, {"measurement": "Activity", "setting": "Cholinesterase [7]", "result": 48.2, "unit": "%"}, {"measurement": "Ratio IC50", "setting": "Homo sapiens", "result": 10.9}, {"measurement": "IC50", "setting": "Cholinesterase [8]", "result": 0.97, "unit": "µM"}, {"measurement": "IC50", "setting": "Cholinesterase [9]", "result": 0.92, "unit": "µM"}, {"measurement": "IC50", "setting": "Acetylcholinesterase", "result": 11.3, "unit": "µM"}, {"measurement": "Activity", "setting": "[10]", "result": "Non-Toxic"}, {"measurement": "Activity", "setting": "[11]", "result": "Non-Toxic"}, {"measurement": "Activity", "setting": "[12]", "result": "Non-Toxic"}, {"measurement": "Flu intensity", "setting": "[13]", "result": 30.3}, {"measurement": "Flu intensity", "setting": "[14]", "result": 18.7}, {"measurement": "Flu intensity", "setting": "[15]", "result": 13.6}, {"measurement": "mortality at 3.125 ug/ml", "setting": "[16]", "result": 0, "unit": "%"}, {"measurement": "mortality at 25 ug/ml", "setting": "[17]", "result": 100, "unit": "%"}, {"measurement": "mortality at 100 ug/ml", "setting": "[18]", "result": 100, "unit": "%"}, {"measurement": "Activity", "setting": "[19]", "result": 16.7, "unit": "%"}, {"measurement": "Activity", "setting": "[20]", "result": 33.3, "unit": "%"}, {"measurement": "Activity", "setting": "[21]", "result": 36.7, "unit": "%"}, {"measurement": "mortality at 1 ug/ml", "setting": "[22]", "result": 0, "unit": "%"}, {"measurement": "Efficacy", "setting": "Danio rerio [23]", "result": 54.9, "unit": "%"}, {"measurement": "Efficacy", "setting": "Danio rerio [24]", "result": 85.9, "unit": "%"}, {"measurement": "Activity", "setting": "Danio rerio [25]", "result": 2.15, "unit": "millimeter/sec"}, {"measurement": "Activity", "setting": "Danio rerio [26]", "result": 66.7, "unit": "%"}, {"measurement": "Activity", "setting": "[27]", "result": "Non-Toxic"}, {"measurement": "Activity", "setting": "[28]", "result": "Toxic"}, {"measurement": "Activity", "setting": "Mus musculus [29]", "result": 0.1, "unit": "U/mg"}, {"measurement": "Activity", "setting": "Mus musculus [30]", "result": 0.098, "unit": "U/mg"}, {"measurement": "Drug metabolism", "setting": "[31]", "result": "Metabolite_Detected"}]}]}
